Experimental findings from US20250313535A1, “ALPHA 4 BETA 7 INTEGRIN MODULATORS AND USES THEREOF” (DICE MOLECULES SV, INC., priority 2022, published 2025) are described below.

The target of one test is α4β7 integrin (Homo sapiens (Human), UniProt P13612+P26010). Briefly: Integrin Adhesion Assay: Protocol 1 (MAdCAM-coated plate, RPMI-8866 cells, CellTiter GLO readout). As to conditions: integrin adhesion assay; determined by at least one of the assays described (protocol not specified). The test is classed as cell-based. In outline:
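RPMI-8866 cells (2×10^6 per mL) added with compounds (1% DMSO) to MAdCAM-coated wells blocked in HEPES/NaCl buffer with 1 mM MnCl2, 0.1 mM CaCl2, 1% BSA; 1 h at 37° C, 5% CO2. After four washes, bound cells read by CellTiter GLO luminescence; % inhibition vs DMSO and control wells, 4-parameter fit.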
(In ATP-based viability assays light output follows the ATP content of the culture.)

For a further test, the target named is α4β1 integrin (Homo sapiens (Human), UniProt P05556+P13612). The test can be described thus: Integrin Adhesion Assay: Protocol 2 (VCAM-coated plate, Jurkat cells, CellTiter GLO readout). The test is classed as cell-based. The settings on record: determined by at least one of the assays described (protocol not specified). As for the experimental part: α4β7 and α4β1 inhibition was evaluated in vitro using at least one of the following procedures:
Integrin Adhesion Assay: Protocol 2
VCAM (R&D Systems, 0.1 ug) was diluted in 50 μL PBS, added to each well of an opaque ELISA plate (Thermo), and incubated overnight at 4° C. Coated plates were washed once with PBS and then blocked with 200 μL of assay buffer (10 mM HEPES, 150 mM NaCl, 1 mM MnCl2, 0.1 mM CaCl2), 1% BSA) for 1 hour at 37° C. and 5% CO2. After incubation, buffer was aspirated from the plates and 50 μL of fresh assay buffer was added. Compounds were added by compounds dispenser (Tecan) and DMSO concentration was normalized to 1% across each plate. 50 μL of Jurkat cells (2×10^6 per mL) were added to each well and the plates were incubated for 1 hour at 37° C. and 5% CO2. After incubation, plates were allowed to cool to RT for 10 minutes before being washed four times in assay buffer by an automated plate washer (BioTek). After washing, 100 μL of a 1:1 mixture of assay buffer and CellTiter GLO 2.0 reagent (Promega) were added to each well. Plates were mixed for 2 minutes at 1000 rpm and then allowed to incubate an additional 10 minutes before reading out luminescence on a Tecan Spark plate reader. Raw data was converted to percent inhibition based on DMSO only and control compound wells, and curves were analyzed by 4-parameter fit within Dotmatics software.

Chain of α4β1 integrin (P13612 34-1032): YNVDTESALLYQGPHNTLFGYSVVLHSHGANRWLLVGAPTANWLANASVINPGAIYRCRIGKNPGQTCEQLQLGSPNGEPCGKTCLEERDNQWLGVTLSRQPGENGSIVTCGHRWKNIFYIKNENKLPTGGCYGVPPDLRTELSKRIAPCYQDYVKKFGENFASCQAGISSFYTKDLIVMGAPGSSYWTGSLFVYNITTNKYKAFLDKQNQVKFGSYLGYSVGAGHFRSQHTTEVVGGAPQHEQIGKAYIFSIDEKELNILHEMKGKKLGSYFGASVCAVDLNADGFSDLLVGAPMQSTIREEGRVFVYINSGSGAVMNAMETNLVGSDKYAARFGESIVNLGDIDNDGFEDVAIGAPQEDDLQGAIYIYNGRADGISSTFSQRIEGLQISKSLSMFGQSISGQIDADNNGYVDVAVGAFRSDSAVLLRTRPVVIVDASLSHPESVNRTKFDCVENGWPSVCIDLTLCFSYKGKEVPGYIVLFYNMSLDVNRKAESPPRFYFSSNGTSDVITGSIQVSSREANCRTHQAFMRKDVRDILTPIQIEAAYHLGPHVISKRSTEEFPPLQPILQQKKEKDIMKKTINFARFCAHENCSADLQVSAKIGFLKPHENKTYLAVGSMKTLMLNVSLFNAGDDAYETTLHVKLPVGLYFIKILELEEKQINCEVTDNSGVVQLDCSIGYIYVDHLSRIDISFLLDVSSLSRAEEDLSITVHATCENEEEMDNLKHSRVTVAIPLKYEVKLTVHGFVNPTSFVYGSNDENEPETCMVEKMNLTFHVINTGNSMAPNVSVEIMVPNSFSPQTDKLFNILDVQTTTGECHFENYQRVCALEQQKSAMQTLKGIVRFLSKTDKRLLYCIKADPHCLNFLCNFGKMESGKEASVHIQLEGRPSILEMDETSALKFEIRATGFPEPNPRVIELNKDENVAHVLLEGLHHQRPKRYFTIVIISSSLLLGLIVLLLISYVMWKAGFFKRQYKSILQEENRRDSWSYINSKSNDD
Chain of α4β1 integrin (P05556 21-798): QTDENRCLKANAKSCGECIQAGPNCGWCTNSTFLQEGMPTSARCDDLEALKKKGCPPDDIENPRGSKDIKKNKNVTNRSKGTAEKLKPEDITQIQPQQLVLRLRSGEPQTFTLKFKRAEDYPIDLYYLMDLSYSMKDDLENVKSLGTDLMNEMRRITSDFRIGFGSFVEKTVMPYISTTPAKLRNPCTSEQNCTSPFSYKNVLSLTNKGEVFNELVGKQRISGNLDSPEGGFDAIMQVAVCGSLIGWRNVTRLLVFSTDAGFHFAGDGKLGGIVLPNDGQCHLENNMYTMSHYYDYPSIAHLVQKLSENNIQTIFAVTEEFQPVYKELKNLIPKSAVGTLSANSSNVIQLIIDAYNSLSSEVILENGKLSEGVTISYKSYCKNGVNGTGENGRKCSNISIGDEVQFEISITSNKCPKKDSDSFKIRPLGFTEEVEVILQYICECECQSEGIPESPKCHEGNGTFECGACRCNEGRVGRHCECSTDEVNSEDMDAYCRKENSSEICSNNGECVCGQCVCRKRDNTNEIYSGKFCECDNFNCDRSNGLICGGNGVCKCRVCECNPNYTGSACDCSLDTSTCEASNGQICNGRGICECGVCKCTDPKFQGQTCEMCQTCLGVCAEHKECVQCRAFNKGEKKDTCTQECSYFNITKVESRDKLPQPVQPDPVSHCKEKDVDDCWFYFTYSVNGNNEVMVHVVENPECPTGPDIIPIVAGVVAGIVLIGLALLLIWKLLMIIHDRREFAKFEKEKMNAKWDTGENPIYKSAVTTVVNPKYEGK
Chain of α4β7 integrin (P13612 34-1032): as the sequence (P13612 34-1032) above
Chain of α4β7 integrin (P26010 20-798): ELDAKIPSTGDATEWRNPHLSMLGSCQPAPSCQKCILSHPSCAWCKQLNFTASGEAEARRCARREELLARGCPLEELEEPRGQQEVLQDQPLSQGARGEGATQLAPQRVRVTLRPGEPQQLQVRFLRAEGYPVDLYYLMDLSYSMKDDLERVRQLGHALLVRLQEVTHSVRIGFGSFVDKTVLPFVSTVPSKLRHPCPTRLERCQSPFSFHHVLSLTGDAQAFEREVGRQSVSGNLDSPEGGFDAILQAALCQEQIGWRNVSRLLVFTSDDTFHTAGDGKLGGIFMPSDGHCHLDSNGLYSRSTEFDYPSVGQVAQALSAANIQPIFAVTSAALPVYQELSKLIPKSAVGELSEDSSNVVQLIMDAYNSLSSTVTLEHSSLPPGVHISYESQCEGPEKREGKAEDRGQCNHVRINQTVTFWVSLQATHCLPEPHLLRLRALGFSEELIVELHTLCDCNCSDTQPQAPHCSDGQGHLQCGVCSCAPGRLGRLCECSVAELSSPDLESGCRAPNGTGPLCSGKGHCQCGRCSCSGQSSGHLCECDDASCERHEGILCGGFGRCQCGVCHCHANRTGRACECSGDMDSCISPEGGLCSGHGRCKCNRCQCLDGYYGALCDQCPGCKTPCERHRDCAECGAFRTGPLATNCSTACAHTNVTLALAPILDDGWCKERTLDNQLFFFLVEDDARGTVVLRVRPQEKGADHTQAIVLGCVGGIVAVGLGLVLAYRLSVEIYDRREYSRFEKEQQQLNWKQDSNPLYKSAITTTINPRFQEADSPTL

Turning to `Cn1ccc(C(F)(F)F)c(-c2nccc3c(C[C@H](NC(=O)c4c(F)cc(N5CCOC[C@@H]5C5CC5)cc4F)C(=O)O)cccc23)c1=O` [Compound 251], the IC50 (as a rule, the concentration at which inhibition is half-maximal) is less than 0.01 µM against α4β7 integrin and greater than 1 µM against α4β1 integrin.

Regarding `Cn1ccc(C(F)(F)F)c(-c2nccc3c(C[C@H](NC(=O)c4c(F)cc(N5CCOCC56CC6)cc4F)C(=O)O)cccc23)c1=O` [Compound 217], the IC50 is less than 0.01 µM at α4β7 integrin and greater than 1 µM against α4β1 integrin.

Take `CC(C)Oc1cc(F)c(C(=O)N[C@@H](Cc2cccc3c(-n4c(=O)ccn(C)c4=O)cccc23)C(=O)O)c(F)c1` [Compound 30]: the IC50 was 0.01 to 0.1 µM against α4β7 integrin and greater than 1 µM against α4β1 integrin.

As for `O=C(N[C@@H](Cc1cccc2c(-c3cccc4ccncc34)cccc12)C(=O)O)c1c(F)cc(N(CC(F)(F)F)CC(F)(F)F)cc1CN1CCCC1` [Compound 151], the IC50 at α4β7 integrin was less than 0.01 µM; against α4β1 integrin, greater than 1 µM.

Take `CN1CCN(Cc2cc(N3CCOC[C@@H]3C(F)(F)F)cc(F)c2C(=O)N[C@@H](Cc2cccc3c(-n4c(=O)ccn(C)c4=O)cccc23)C(=O)O)CC1` [Compound 22]: the IC50 on α4β7 integrin is less than 0.01 µM; against α4β1 integrin, greater than 1 µM.

As to `CN([C@H](CCC(=O)O)C(=O)N[C@@H](Cc1cccc2c(-n3c(=O)ccn(C)c3=O)cccc12)C(=O)O)S(=O)(=O)c1ccccc1` [Compound 72], the IC50 at α4β7 integrin is 0.1 to 1 µM; against α4β1 integrin it was greater than 1 µM.

As to `Cn1ccc(C(F)(F)F)c(-c2nccc3c(C[C@H](NC(=O)c4c(F)cc(N5CCOC[C@H]5C5CC5)cc4F)C(=O)O)cccc23)c1=O` [Compound 257], the IC50 is 0.01 to 0.1 µM against α4β7 integrin and greater than 1 µM on α4β1 integrin.

Regarding `O=C(N[C@@H](Cc1cccc2c(-n3c(=O)ccc4cnccc43)cccc12)C(=O)O)c1c(F)cccc1F` [Compound 2], the half-maximal inhibitory concentration (IC50) against α4β7 integrin was less than 0.01 µM; against α4β1 integrin, greater than 1 µM.

With `CC(C)CN1CCC(C)(C(=O)N[C@@H](Cc2cccc3c(-n4c(=O)ccn(C)c4=O)cccc23)C(=O)O)CC1` [Compound 59], the IC50 at α4β7 integrin is 0.01 to 0.1 µM; against α4β1 integrin it was greater than 1 µM.

Consider `O=C(N[C@@H](Cc1cccc2c(-c3cccc4ccncc34)nccc12)C(=O)O)c1c(F)cc(NCC(F)(F)F)cc1CN1CCCC1` [Compound 256], for which the IC50 at α4β7 integrin was 0.01 to 0.1 µM; at α4β1 integrin, greater than 1 µM.

Turning to `Cn1ccc(=O)n(-c2cccc3c(C[C@H](NC(=O)c4c(F)ccc(NCC(F)(F)F)c4F)C(=O)O)cccc23)c1=O` [Compound 120], the IC50 was 0.01 to 0.1 µM against α4β7 integrin and greater than 1 µM at α4β1 integrin.

`Cn1ccc(=O)n(-c2cccc3c(C[C@H](NC(=O)[C@@H]4[C@@H]5CC[C@H]4CN(CC(F)(F)F)C5)C(=O)O)cccc23)c1=O` [Compound 155]: the 50% inhibitory concentration (IC50) against α4β7 integrin and against α4β1 integrin was greater than 1 µM in each case.

On to `O=C(N[C@@H](Cc1cccc2c(-c3cccc4ccncc34)cccc12)C(=O)O)c1c(F)cc(N2CCOC[C@@H]2C(F)(F)F)cc1CN1CCOCC1` [Compound 149], for which the IC50 on α4β7 integrin is 0.01 to 0.1 µM; against α4β1 integrin, greater than 1 µM.

Take `Cn1ccc(C(F)(F)F)c(-c2nccc3c(C[C@H](NC(=O)c4c(F)cc(N5CCOC[C@@H]5C(F)(F)F)cc4CN4CCOCC4)C(=O)O)cccc23)c1=O` [Compound 245]: the IC50 on α4β7 integrin was less than 0.01 µM; against α4β1 integrin it was greater than 1 µM.

Take `COc1ccc(F)c(C(=O)N[C@@H](Cc2cccc3c(-n4c(=O)ccn(C)c4=O)cccc23)C(=O)O)c1F` [Compound 138]: the IC50 against α4β7 integrin is 0.01 to 0.1 µM; against α4β1 integrin, greater than 1 µM.

On to `Cn1ccc(=O)n(-c2cccc3c(C[C@H](NC(=O)C4CCN(CC(F)(F)F)CC4)C(=O)O)cccc23)c1=O` [Compound 35], for which the half-inhibitory concentration (IC50) against α4β7 integrin and against α4β1 integrin was greater than 1 µM throughout.

Turning to `O=C(N[C@@H](Cc1cccc2c(-c3cccc4ccncc34)cccc12)C(=O)O)c1c(F)cc(N2CCOC[C@@H]2C(F)(F)F)cc1CN1CCCC1` [Compound 148], the values for the IC50 against α4β7 integrin and at α4β1 integrin were less than 0.01 µM and greater than 1 µM, respectively.

In the case of `Cn1ccc(=O)n(-c2cccc3c(C[C@H](NC(=O)C45CCC(CC4)CC5)C(=O)O)cccc23)c1=O` [Compound 51], the IC50 against α4β7 integrin was 0.1 to 1 µM; on α4β1 integrin it was greater than 1 µM.

Take `Cn1cc(CCN2CC(F)C2)c(=O)n(-c2cccc3c(C[C@H](NC(=O)c4c(F)cccc4F)C(=O)O)cccc23)c1=O` [Compound 118]: the IC50 at α4β7 integrin was 0.01 to 0.1 µM; against α4β1 integrin it was greater than 1 µM.

For the molecule `Cn1ccc(=O)n(-c2cccc3c(C[C@H](NC(=O)c4c(F)cc(CN5CCOCC5)cc4F)C(=O)O)cccc23)c1=O` [Compound 34], the IC50 was 0.1 to 1 µM against α4β7 integrin and greater than 1 µM on α4β1 integrin.

Regarding `Cn1ccc(=O)n(-c2cccc3c(C[C@H](NC(=O)c4c(F)cc(NCC(F)(F)F)cc4F)C(=O)O)cccc23)c1=O` [Compound 114], the IC50 at α4β7 integrin was less than 0.01 µM; against α4β1 integrin, greater than 1 µM.

Consider `Cn1ccc(=O)n(-c2cccc3c(C[C@H](NC(=O)C4C(C)(C)CN(CC(F)(F)F)CC4(C)C)C(=O)O)cccc23)c1=O` [Compound 156], for which the 50% inhibitory concentration (IC50) is 0.1 to 1 µM against α4β7 integrin and greater than 1 µM on α4β1 integrin.

As for `Cn1ccc(=O)n(-c2cccc3c(C[C@H](NC(=O)[C@]45C[C@@H]6C[C@H](C4)C(F)(F)[C@@H](C6)C5)C(=O)O)cccc23)c1=O` [Compound 65], the IC50 on α4β7 integrin and against α4β1 integrin was 0.1 to 1 µM in each case.

For the molecule `O=C(N[C@@H](Cc1cccc2c(-c3nccc4ccncc34)cccc12)C(=O)O)c1c(F)cc(N2CCOC[C@@H]2CC(F)F)cc1F` [Compound 39], the IC50 was 0.01 to 0.1 µM against α4β7 integrin and greater than 1 µM against α4β1 integrin.

Regarding `Cn1ccc(=O)n(-c2cccc3c(C[C@H](NC(=O)c4c(F)cccc4F)C(=O)O)cccc23)c1=O` [Compound 1], the IC50 on α4β7 integrin lay in the range of 0.01 to 0.1 µM; on α4β1 integrin, 0.1 to 1 µM.

Take `O=C(N[C@@H](Cc1cccc2c(-c3nccc4ccncc34)cccc12)C(=O)O)c1c(F)cc(N2CCOC[C@H]2CC(F)F)cc1F` [Compound 140]: the IC50 against α4β7 integrin is 0.1 to 1 µM; at α4β1 integrin it was greater than 1 µM.

As to `Cn1ccc(=O)n(-c2cccc3c(C[C@H](NCc4ccccc4)C(=O)O)cccc23)c1=O` [Compound 69], the IC50 at α4β7 integrin and against α4β1 integrin was greater than 1 µM each time.

For the molecule `Cc1cc(C(F)(F)F)c(-c2cccc3c(C[C@H](NC(=O)c4c(F)cc(N5CCOC[C@@H]5C(F)(F)F)cc4F)C(=O)O)cccc23)c(=O)n1C` [Compound 113], the IC50 is less than 0.01 µM against α4β7 integrin and 0.1 to 1 µM against α4β1 integrin.

For `Cn1ccc(=O)n(-c2cccc3c(C[C@H](NC(=O)c4c(F)cc5cn(CC(F)(F)F)nc5c4F)C(=O)O)cccc23)c1=O` [Compound 144], the IC50 at α4β7 integrin was 0.01 to 0.1 µM; against α4β1 integrin, 0.1 to 1 µM.

Consider `Cn1ccc(C(F)(F)F)c(-c2nccc3c(C[C@H](NC(=O)c4c(CN5CCOCC5)cc(N5CCOC[C@@H]5C(F)(F)F)cc4C(F)(F)F)C(=O)O)cccc23)c1=O` [Compound 227], for which the IC50 against α4β7 integrin and at α4β1 integrin was greater than 1 µM throughout.

Turning to `O=C(N[C@@H](Cc1cccc2c(-c3nccc4ccncc34)cccc12)C(=O)O)c1c(F)cc(N2CCOC[C@@H]2C(F)(F)F)cc1CN1CCOCC1` [Compound 129], the IC50 at α4β7 integrin was less than 0.01 µM; against α4β1 integrin, 0.1 to 1 µM.

As for `CCN1CCC(C(=O)N[C@@H](Cc2cccc3c(-n4c(=O)ccn(C)c4=O)cccc23)C(=O)O)CC1` [Compound 36], the IC50 at α4β7 integrin and against α4β1 integrin was greater than 1 µM throughout.

Regarding `Cn1ccc(=O)n(-c2cccc3c(C[C@H](NC(=O)c4c(F)cc(N5CCOC[C@@H]5C(F)(F)F)cc4CN4CCCC4)C(=O)O)cccc23)c1=O` [Compound 48], the values for the IC50 against α4β7 integrin and against α4β1 integrin were less than 0.01 µM and 0.1 to 1 µM, respectively.

Regarding `O=C(N[C@@H](Cc1cccc2c(-c3nccc4ccncc34)cccc12)C(=O)O)c1c(F)cc(N2CCOC[C@@H]2CC(F)F)cc1CN1CCOCC1` [Compound 46], the IC50 was less than 0.01 µM against α4β7 integrin and greater than 1 µM on α4β1 integrin.

For `CCOCc1cc(OC)c(-c2cccc3c(C[C@H](NC(=O)c4c(F)cc(N5CCOC[C@@H]5C(F)(F)F)cc4F)C(=O)O)cccc23)c(OC)c1` [Compound 171], the IC50 was less than 0.01 µM at α4β7 integrin and 0.1 to 1 µM against α4β1 integrin.

Take `Cn1ccc(=O)n(-c2cccc3c(C[C@H](NC(=O)C(C)(C)c4ccc(Oc5ccccc5)cc4)C(=O)O)cccc23)c1=O` [Compound 178]: the IC50 against α4β7 integrin and against α4β1 integrin was greater than 1 µM each time.

In the case of `O=C(N[C@@H](Cc1cccc2c(-c3cccc4ccncc34)nccc12)C(=O)O)c1c(F)cc(N(CC(F)(F)F)CC(F)(F)F)cc1CN1CCCC1` [Compound 222], the IC50 at α4β7 integrin was less than 0.01 µM; against α4β1 integrin it was greater than 1 µM.

For `CCOCc1cc(OC)c(-c2nccc3c(C[C@H](NC(=O)c4c(F)cccc4F)C(=O)O)cccc23)c(OC)c1` [Compound 260], the IC50 fell in the range of 0.01 to 0.1 µM at α4β7 integrin and 0.1 to 1 µM at α4β1 integrin.

As for `O=C(N[C@@H](Cc1cccc2c(-c3cccc4ccncc34)cccc12)C(=O)O)c1c(F)cc(NCC(F)(F)F)cc1CN1CCCC1` [Compound 150], the IC50 against α4β7 integrin was less than 0.01 µM; on α4β1 integrin it was greater than 1 µM.
